Experimental data published in ChEMBL document CHEMBL3217530, “Synthesis of coumarinchalcone hybrids and evaluation of their antioxidant and trypanocidal properties” (2013).
Active and inactive are the calls of the source. The rule behind the calls is not given here.

Tests used:
Trypanosoma cruzi [1] = experiment: Antitrypanosomal activity against Trypanosoma cruzi Dm28c epimastigotes assessed as non-viable epimastigotes at 100 umol/L after 4 hrs by MTT assay relative to untreated control; assay type: functional
[2] = Antioxidant activity assessed as compound compete with DMPO for hydroxyl radicals by ESR assay; assay type: functional
[3] = Antioxidant activity assessed as hydroxyl radical scavenging activity after 5 mins by ESR spectroscopy; set-up: concentration or dose not given beside the values
Trypanosoma cruzi [4] = experiment: Antitrypanosomal activity against Trypanosoma cruzi Dm28c epimastigotes assessed as non-viable epimastigotes at 10 umol/L after 4 hrs by MTT assay relative to untreated control; assay type: functional

Compound	Activity (Trypanosoma cruzi [1])	Activity [2]	Activity [3]	Activity (Trypanosoma cruzi [4])
O=C(c1ccc(O)c(O)c1)c1cc2cc(Br)cc(O)c2oc1=O	24.1%	Active	90.9%	9.5%
CC1CS(=O)(=O)CCN1/N=C/c1ccc([N+](=O)[O-])o1 (stereo not drawn) [NIFURTIMOX]	100%			52.5%
O=C(c1ccc(O)c(O)c1)c1cc2c(O)cc(O)cc2oc1=O	inactive		84.2%	inactive
Cc1ccc2oc(=O)c(C(=O)c3ccc(O)c(O)c3)cc2c1	47.9%		82.1%	27.9%
O=C(c1ccc(O)c(O)c1)c1cc2ccccc2oc1=O	38.7%		84.6%	23.8%
O=C(c1ccc(O)c(O)c1)c1cc2cc(O)ccc2oc1=O	46.4%		84.8%	18.9%
